Data: patent US8435992B2, “Multiple myeloma treatments” (Pharma Mar S.A., priority 2008, dated 2013)

Assays:
[1] = test system: myelomatous plasma cells from bone marrow samples of MM patients; assay: Ex vivo apoptosis (Annexin V) in bone marrow cells from MM patients; type: cell-based, human; settings: 1-50 nM, 18 hours
Description: FIG. 2. Freshly isolated bone marrow cells obtained from six MM patients were treated ex vivo with PM00104 (1-50 nM) for 18 hours. After the incubation period, cells were stained with the combination of Annexin V-FITC, and three monoclonal antibodies against plasma cell surface antigens (CD38, CD56 and CD45) which allow the analysis of the induction of apoptosis in the myelomatous population. Results are given as the percentage of Annexin V positive cells related to the percentage of viable cells in the untreated sample.
Additionally, the effect of PM00104 was further investigated ex vivo in cells isolated from bone marrow (BM) samples obtained from six patients with MM. Samples were lysed with ammonium chloride in order to remove red blood cells, and white cells were maintained in RPMI-1640 containing antibiotics (penicillin 100 U/ml, streptomycin 100 μg/ml) and 20% FBS. […] A total of 50,000 cells were acquired on a FACScalibur flow cytometer (BD Biosciences) and analyzed with the “Paint-a-Gate” program. Apoptosis was analyzed based on the Annexin-V positivity in the different populations: tumour PCs as well as in normal residual lymphocytes and granulo-monocytes. The percentage of Annexin V positive cells after treatment with PM00104 was calculated over the Annexin V negative cells (viable cells) in the control samples (without treatment).

MM1S = assay: MTT viability assay, MM cell line panel; type: cell-based, human
Description: (§1) Antitumor activity of PM00104 in MM was evaluated by using a cell line panel comprising the following 9 MM cell lines: MM1S, MM1R, MM144, RPMI8226, RPMI-LR5, U266, U266-LR7, OPM-1, and OPM-2. These cell lines were grown in RPMI 1640 medium with L-glutamine supplemented with antibiotics (penicillin at 100 U/mL, streptomycin at 100 μg/mL) and 10% fetal bovine serum (FBS) at 37° C. in a humidified atmosphere in the presence of 5% CO2-95% air.
(§2) Cell lines were treated with increasing concentrations of the PM00104 (0.1-50 nM) for 24, 48 and 72 hours, and viability was analyzed by using 3-(4,5-dimethylthiazol-2-yl)-2,5-diphenyltetrazolium bromide (MTT) colorimetric assay. Briefly, MM cell lines were seeded at a density of 50,000 cells/200 […] medium per well in 48-well plates, and treated with a determined drug dose and time. Two hours before the end of the treatment, a MTT solution (5 mg/mL) in PBS) was added and the tetrazolium salt was reduced by metabolically active cells to coloured formazan crystals. After solubilization of these crystals by overnight incubation with 10% SDS-HCl solution, absorbance was measured at 570 nm with correction at 630 nm. Results are presented as the mean±SD of quadruplicates of an experiment that was repeated at least twice.

MM1S plasmocytomas = assay: Human plasmocytoma xenograft in CB17-SCID mice (MM1S); type: in vivo; settings: for tumor volume (mean±SD): after 15 days of treatment
Description: (§3) The in vivo efficacy of PM00104 was studied in a model of human plasmocytoma xenografted in CB17-SCID mice. These experiments were performed using the very sensitive cell line MM1S and the less sensitive one OPM-1. Two cohorts of thirty mice were subcutaneously injected with each cell line and mice were randomized into three groups receiving vehicle alone, 0.8 mg/kg of PM00104, or 1 mg/Kg PM00104 intravenously (iv) once weekly for three doses.
(§4) CB17-SCID mice (The Jackson Laboratory, Bar Harbor, Me., USA) were subcutaneously inoculated into the right flank with 3×10^6 MM1S or OPM1 cells in 100 μL of RPMI-1640 medium and 100 μL of Matrigel (Becton Dickinson). When tumours became palpable, mice received PM00104 or vehicle alone. Treatment with PM00104 was given iv, at doses of 0.8 mg/kg and 1 mg/kg once weekly for three doses. The control group received the vehicle alone (sterile water for injection plus saline).
(§5) Caliper measurements of the tumour diameters were performed every day, and the tumour volume was estimated as the volume of an ellipse using the following formula: V=4/3π×(a/2)×(b/2)^2, where “a” and “b” correspond to the longest and shortest diameter, respectively. Animals were euthanized when their tumours reached 2 cm. Differences in tumour volumes between treated and control groups were evaluated using 1-way analysis of variance and Bonferroni post hoc tests. Survival was estimated from the day of initiation of treatment, and statistical differences were assessed by Kaplan-Meier curves with the Log Rank test. Statistical analyses were performed with the SPSS-15.0 software (SPSS Inc. Chicago, Ill., USA) and statistical significance was defined as p<0.05.

OPM-1 plasmocytomas = assay: Human plasmocytoma xenograft in CB17-SCID mice (OPM-1); type: in vivo; settings: for tumor volume (mean±SD): after 14 days of treatment
Description: as §3, §4, §5

OPM-2 = assay: MTT viability assay, MM cell line panel; type: cell-based; settings: Homo sapiens; OPM-2, MTT, 48 hours
Description: as §1, §2

RPMI-LR5 = assay: MTT viability assay, MM cell line panel; type: cell-based; settings: RPMI-LR5 (melphalan resistant), 48 hours
Description: as §1, §2

RPMI8226 = assay: MTT viability assay, MM cell line panel; type: cell-based; settings: Homo sapiens, RPMI-8226, 48 hours
Description: as §1, §2

U266 = assay: MTT viability assay, MM cell line panel; type: cell-based; settings: Homo sapiens, U-266, 48 hours
Description: as §1, §2

OPM-1 = assay: MTT viability assay, MM cell line panel; type: cell-based; settings: Homo sapiens; OPM-1, MTT, 48 hours
Description: as §1, §2

U266-LR7 = assay: MTT viability assay, MM cell line panel; type: cell-based; settings: U266-LR7 (melphalan resistant), 48 hours
Description: as §1, §2

MM1R = assay: MTT viability assay, MM cell line panel; type: cell-based
Description: as §1, §2

MM144 = assay: MTT viability assay, MM cell line panel; type: cell-based
Description: as §1, §2

[2] = test system: BMSCs derived from a MM patient; assay: MTT cytotoxicity on BMSCs; type: cell-based, human; settings: 48 hours
Description: (§6) FIG. 3. PM00104 overcomes the protective effects of IL-6, IGF-I, and adherence to patient BMSCs. MM1S cells were treated for 48 hours with indicated concentrations of PM00104 in the presence or absence of IL-6 (FIG. 3A), IGF-I (FIG. 3B), or BMSCs derived from a MM patient (FIG. 3C). DNA synthesis was determined by measuring BrdU incorporation during the last 8 hours of 48-hour cultures. Additionally, BMSCs were cultured with different doses of PM00104 for 48 hours and the cytotoxicity was analyzed by MTT assay (FIG. 3D). Data is presented as the mean±SD of quadruplicates.

MM1S cells [3] = assay: Combination with antimyeloma agents, MTT assay, Chou Talalay combination index; type: cell-based, human; settings: 72 hours; for combination index (CI): Chou and Talalay method
Description: FIG. 5. PM00104 potentiates the antimyeloma action of conventional and novel antimyeloma agents. MM1S cells were treated with suboptimal concentrations of PM00104 (Zalypsis, Z) and other antimyeloma agents such as Dexamethasone (Dex), melphalan (Mel), doxorubicin (Dox), bortezomib (Bort) and lenalidomide (Len) in double (FIG. 5A) and triple combinations (FIG. 5B). Cell viability was analyzed by MTT assay.
MM1S cells were treated for 72 hours, as described in example 1, with combinations of suboptimal doses of PM00104 and other antimyeloma agents such as dexamethasone, melphalan, doxorubicin, bortezomib and lenalidomide, in double and triple combinations. Cell viability was analyzed by MTT assay as described in example 1. The potency of the combination was quantified with the Calcusyn software (Biosoft, Ferguson, Mo.), which is based in the Chou Talalay method, that calculates a combination index (CI) with the following interpretation: CI>1: antagonistic effect, CI=1: additivity and CI<1 synergistic effect.

[4] = Systemic toxicity and body weight in xenografted mice; type: in vivo
Description: as §3, §4

MM1S cells [5] = assay: BrdU uptake of MM1S cells with IL-6, IGF-I or co-cultured BMSCs; type: cell-based, human; settings: 48 hours
Description: as §6
The presence of the BM microenvironment confers protection to MM through their adhesion or through the production of several cytokines such as IL-6 or IGF-I. In order to test whether PM00104 was able to inhibit this protective effect of the BM microenvironment, MM1S cells were incubated with IL-6 (1 nM) or IGF-I (10 nM), or co-cultured with BM stromal cells (BMSCs) for 48 hours, and then treated with increasing concentrations of PM00104. BMSCs were plated in 96-well culture dishes (50,000 cells/well) and allowed to reach confluence during 48 hours. Then, 30,000 myeloma cells were plated in RPMI 1640 containing 10% serum. Proliferation of MM cells was then assessed by Bromodeoxyuridine (BrdU) uptake (Maiso P et al. Br. J. Haematol. 2008, 141, 470-482). BrdU was added for the last 8 hours, and BrdU uptake was measured using a commercial kit (Roche Biochemicals), following the manufacturer's instructions.

[6] = 0.8 mg/kg iv once weekly for three doses
[7] = 1 mg/kg iv once weekly for three doses
[8] = OPM-1, 0.8 mg/kg iv once weekly for three doses
[9] = OPM-1, 1 mg/kg iv once weekly for three doses

## COc1c(C)cc2c(c1O)[C@@H]1[C@@H]3Cc4c(OC(C)=O)c(C)c5c(c4[C@H](CNC(=O)/C=C/c4cccc(C(F)(F)F)c4)N3[C@@H](O)[C@H](C2)N1C)OCO5 [PM00104]
[1]; four out of six samples (patients 1, 6, 3 and 5)
  sensitivity of patient samples (Annexin V positive cells): very sensitive to low concentrations
[1]; patient 4, secondary plasma cell leukemia
  sensitivity of patient samples (Annexin V positive cells): intermediate sensitivity
MM1S
  IC50 at 48 hours: picomolar concentrations
MM1S plasmocytomas; [6]
  median±SE survival: 52 ± 4.8 days
  tumor volume (mean±SD): 420±242 mm^3
MM1S plasmocytomas; [7]
  median±SE survival: 59 ± 5.5 days
  tumor volume (mean±SD): 176±78 mm^3
OPM-1 plasmocytomas; [8]
  median±SE survival: 21 ± 0.8 days
  tumor volume (mean±SD): 1879±731 mm^3
OPM-1 plasmocytomas; [9]
  median±SE survival: 23 ± 1.1 days
  tumor volume (mean±SD): 1042±596 mm^3
OPM-2
  IC50: 1 to 2 nM
RPMI-LR5
  IC50: 1 to 2 nM
RPMI8226
  IC50: 1 to 2 nM
U266
  IC50: 1 to 2 nM
OPM-1
  IC50: 1 to 2 nM
U266-LR7
  IC50: 1 to 2 nM
MM1R
  IC50 at 48 hours: picomolar concentrations
MM144
  IC50 at 48 hours: picomolar concentrations
[2]
  cytotoxic effect on BMSCs: very resistant
MM1S cells [3]; with bortezomib
  effect of combination on cell viability: promising additive/synergistic results
MM1S cells [3]; with dexamethasone + doxorubicin
  efficacy of triple combination vs respective double combinations: significantly improved the efficacy
MM1S cells [3]; with dexamethasone + lenalidomide
  efficacy of triple combination vs respective double combinations: significantly improved the efficacy
MM1S cells [3]; with dexamethasone + melphalan
  efficacy of triple combination vs respective double combinations: significantly improved the efficacy
MM1S cells [3]; with dexamethasone
  combination index (CI): 0.78
MM1S cells [3]; with doxorubicin
  combination index (CI): 0.64
MM1S cells [3]; with lenalidomide
  combination index (CI): 0.55
MM1S cells [3]; with melphalan
  combination index (CI): 0.48
[4]; 0.8 and 1 mg/kg iv once weekly for three doses
  systemic toxicity: no significant systemic toxicity
[4]; highest of PM00104 doses
  weight loss (of body weight as compared to the controls): around 10%
MM1S cells [5]; MM1S co-cultured with BMSCs
  effect on protective effect due to adhesion of plasma cells to BMSCs (BrdU uptake): largely inhibited
MM1S cells [5]; MM1S, IGF-I 10 nM
  effect on proliferative advantage conferred by IGF-I (BrdU uptake): completely abrogated
MM1S cells [5]; MM1S, IL-6 1 nM
  effect on proliferative advantage conferred by IL-6 (BrdU uptake): completely abrogated
